Test results as given in US20040063624A1, “Method of inhibiting the transition of free HIV virus through the cllular mucosal barrier” (priority 1999, published 2004).

How the values were obtained:
[1] = system: transport of gp120 coated particles through the epithelial monolayer; assay: Transepithelial transport of gp120-coated fluorescent particles; format: cell-based, human; settings: for transport of gp120-coated particles, % of the level for unstimulated cells: FSK- and IBMX-treated cells
Description: For transepithelial transport studies gp120 was covalently coupled to monodispersed carboxylated fluorescent microparticles (0,1 μm in diameter; Polysciences, Warlington, Pa.) as described previously (Molday R. S., 1975, J. Cell Biol., 64, 75-88). The active groups of the control beads and the remaining gp120 coated beads were blocked with glycine. The attachment of gp120 to the fluoresent particles was quantified by measuring the binding of a monoclonal anti-HIV gp120 antibody to the beads.
The gp120-coated particles were diluted (10^5 partices/ml) in Hanks buffer and placed in the apical chamber after the epithelial cells were washed three times with Hanks buffer. The apical chamber was transferred into a new basal chamber, and Hanks buffer was changed after 10, 40, 90 min of incubation. The buffer harvested at the indicated time points was centrifuged (14.000×g for 15 min), the pellet was resuspended and the fluorescence activity was measured. A combination of forskolin (FSK 10 μM ) and 3-isobutyl-1-methyl-xantin (IBMX, 10 μm) was used to study the effect of cyclic AMP (cAMP) and epithelial transport. Preincubation of the epithelial cells for 2 h increased the intracellular cAMP level eightfold (cAMP immunoassay: Biomol, Plymouth Meeting, Pa.). Glycine-coated microparticles were used as the control for nonspecific paracellular flow under the experimental conditions: the fluorescence of the controls was subtracted from the fluorescence-activities found in the respective experiments with gp120-coated particles.
After incubation for 10, 40 and 90 min at 37° C., the solution in the basal chamber was changed and the fluorescence activity was measured as described above.
To increase the amount of high-mannose-type glycans on the epithelial cells, cells were preincubated for 2 h with 10 mM desoxymannojirimycin (Fuhrmann U. E., 1984, Nature, 307, 755-788). To control the increase of high-mannose-type glycan expression, the filter membrane was cut and placed in 300 μl of lysis buffer (0,2 M Tris-HCl, 2% SDS, 0,1% dithiothreitol). […]

[2] = system: HIV-1 strain IIIb; assay: Viral transepithelial transport in two-compartment culture system; format: cell-based; settings: 45 min. incubation; for amount of infectious HIV 1 in the basal compartment: without inhibitor 10^3
Description: For transepithelial transport experiments, primary epitheilal cells (10^4/ml) were grown on a polycarbonate filter membrane (9 mm diameter 3,0 μm pore diameter, Becon Dickinson) separating a basal and an apical chamber and cultivated for 10 days until confluence was observed. The development of an epithelial monolayer was examined by confocal laser microscopy. To further test for confluence a fluorescein solution (0,2 mg/ml) or fluorescent paricles (10^6 particles/ml each particle 0,1 μm in diameter) were added to the apical chamber and fluorescence activity in the basal chambers was measured after 45 min of incubation at 4° C. to inhibit cell membrane diffusion. For calibration of paracellular diffusion membranes were covered with a layer of 15% polyacrylamide gel leaving free circular areas by placing small cylinders of defined size on the filter before gel casting. Fluorescence activity which diffused from the apical to the basal chamber through different areas of uncovered epithelial cells was measured after the 45 min. incubation.
(§1) HIV-1 strain IIIb (1,8×10^4 50% tissue culture infective doses [TCID50/ml]) harvested from HIV-1 infected H9 cells was cleared from all debris by centrifugation (10 min. 200×g) and filtered through a 0,2 μm pore size filter membrane. The cell-free virus was diluted 1:10 with Hanks buffer and was placeed in the apical compartment (for details see below). After a 45 min incubation, medium from the lower compartment was harvested. The amount of infectious HIV-1 in the basal chamber of the culture unit was determined by a standard tritation assay Tritation of HIV was performed in triplicate in 24-well tissue culture plates on MT 4 cells seeded at a concentration of 2×10^4/ml. Samples were diluted serially (1:10) in culture medium (RPMI 1640 supplemented with 10% FCS and 5% glutamine). The titration was evaluated between 10 and 14 days postinfection when a prominent cytopathic effect (CPE) was visible. Medium was replaced twice a week with cells being diluted as required. Values of TCID50 per milliliter were determined as described in Reed C. J. et al., 1938, Am. J. Hyg., 27, 494.497. All experiments were performed in triplicate.
The HIV-1 specificity of the CPE in MT4 cells was confirmed by determination of p24 core protein content by a p24 antigen capture assay (Coulter). […] Experiments were done in triplicate.

[3] = system: HIV-1 strain IIIb; assay: Viral intake and release: cell-free HIV-1 taken up by epithelial monolayer, supernatant titrated on MT4 cells; format: cell-based
Description: Epithelial cells were obtained from biopsies of the gingiva of a healthy donor. The biopsies were washed several times with phosphate-buffered saline and cultured after trypsinization in Dulbecco modified Eagle medium containing 10% fetal calf serum (FCS). Fibroblast growth was suppressed by the addition of recombinant epidermal growth factor (10 μg/liters Sigma, Deisenhofen, Germany) to the culture medium. The epithelial character of the primary cells and the formation of tight junctions were confirmed morphologically by electron microscopy.
as §1
HIV-1 strain IIIb (1,8×10^5 TCID50/ml) was placed on epithelial cells (10^6/petri dish). […] After a 1-h incubation, the cells were washed three times with trysin (0,25%) and incubated for 10 min at 37° C. with trypsin solution to inactivate all virus particles adsorbed at the cell surface. The cells were harvested and subcultured for different incubation times (see. Table 1). Subsequently, the cell-free supermatant of each subculture was titrated on MT4 cells as described above.
For the data in Table 1 HIV-1 strain IIIb (1,8×10^4 TCID50/ml) was placed on epithelial cells (10^6/petri dish) with or without inhibitors. After a 1-h incubation the cells were treated with trypsin to inactivate all extracellular HIV particles. Cells were incubated with fresh medium and the supernatants were harvested at different time points. Infectious virus in the supernatant was titrated on MT4 cells (see Materials and Methods). All experiments were performed in triplicate. The differences between the infectious titers with and without inhibitors are highly significant for all incubation times (P<0.001 by the Mann Whitney U test).

`CO[C@H]1O[C@H](CO)[C@@H](O)[C@H](O)[C@@H]1O` [aMMP, α-methyl-mannopyramoside] was tested, and the “transport of gp120-coated particles, % of the level for unstimulated cells” value ([1]; aMMP 100 mM final concentration) was “about 50%”, the “reduction of the amount of infectious HIV 1 in the basal compartment” value ([2]; aMMP (100 mM)) was 1 order of magnitude and the “amount of infectious HIV 1 in the basal compartment” value ([2]; preincubation with aMMP (100 mM)) was 10^2 TCID50/ml. The “HIV concn in the supernatant after treatm.” value (“HIV concn in the supernatant” for short) ([3]; aMMP (100 mM), 60 min. after trypsin treatm.) was 10^1 TCID50/ml, the “HIV concn in the supernatant” value ([3]; aMMP (100 mM), 120 min. after trypsin treatm.) was 10^1 TCID50/ml and the “HIV concn in the supernatant” value ([3]; aMMP (100 mM), 160 min after trypsin treatm.) was 10^1 TCID50/ml. For the same compound, the “HIV concn in the supernatant” value ([3]; aMMP (100 mM), 24 h after trypsin treatm.) was 10^1 TCID50/ml.

With `OC[C@H]1NC[C@@H](O)[C@@H](O)[C@@H]1O` [desoxymannojirimycin, reference compound] the “effect on the cAMP-stimulated increase of particles in the basal compartment (in words)” value ([1]; 2 h preincubation with 10 mM desoxymannojirimycin, FSK/IBMX stimulated cells) was “further augmentation”.

Mucin was tested, and the “amount of infectious HIV 1 in the basal compartment” value ([2]; mucin (30 mg/ml per method)) was 10^2 TCID50/ml, the “HIV concn in the supernatant” value ([3]; Mucin (1 mM), 60 min. after trypsin treatm.) was 10^1 TCID50/ml and the “HIV concn in the supernatant” value ([3]; Mucin (1 mM), 120 min. after trypsin treatm.) was 10^1 TCID50/ml. For the same compound, the “HIV concn in the supernatant” value ([3]; Mucin (1 mM), 160 min after trypsin treatm.) was 10^1 TCID50/ml, the “HIV concn in the supernatant” value ([3]; Mucin (1 mM), 24 h after trypsin treatm.) was 10^1 TCID50/ml and the “inhibition of viral uptake and release of cell-free HIV-1 (in words)” value ([3]; Table 1) was “significantly inhibit”.

In the case of mannan, the “transport of gp120-coated particles, % of the level for unstimulated cells” value ([1]; mannan 5 mg/ml final concentration) is reported as “about 50%”, the “reduction of the amount of infectious HIV 1 in the basal compartment” value ([2]; mannan (5 mM)) is reported as 1 order of magnitude and the “amount of infectious HIV 1 in the basal compartment” value ([2]; preincubation with mannan (5 mM)) is reported as 10^2 TCID50/ml. For the same compound, the “HIV concn in the supernatant” value ([3]; Mannan (5 mM), 60 min. after trypsin treatm.) was 10^0 TCID50/ml, the “HIV concn in the supernatant” value ([3]; Mannan (5 mM), 120 min. after trypsin treatm.) was 10^1 TCID50/ml and the “HIV concn in the supernatant” value ([3]; Mannan (5 mM), 160 min after trypsin treatm.) was 10^1 TCID50/ml. For the same compound, the “HIV concn in the supernatant” value ([3]; Mannan (5 mM), 24 h after trypsin treatm.) was 10^1 TCID50/ml.
